Assay results: publication PMC6143625, “A high throughput screen for next-generation leads targeting malaria parasite transmission” (Nature Communications, 2018)

Legend:
[1] = test system: P. falciparum stage V male gametocytes (male gamete formation); experiment: P. falciparum dual gamete formation assay (Pf DGFA), male readout (exflagellation), 48 h carry-over format; type: cell-based, Plasmodium falciparum NF54; settings: primary screen, 2 uM, 48 h incubation, single replicate
[2] = test system: P. falciparum stage V female gametocytes (female gamete formation); experiment: P. falciparum dual gamete formation assay (Pf DGFA), female readout (Pfs25 expression), 48 h carry-over format; type: cell-based, Plasmodium falciparum NF54; settings: primary screen, 2 uM, 48 h incubation, single replicate

| SMILES | %Inhibition Male @2uM [1] [%] | %Inhibition Female @2uM [2] [%] |
| --- | --- | --- |
| CCc1ccc(CN(C)C(=O)C2CC(=O)N(c3cccc(O)c3)C2)nc1 (stereo not shown) [DDD01246796] | 126.32 | <30 |
| C=C1C(C)(C)[C@@H]2CC[C@]1(C(=O)N1CCC(n3cc(CCO)nn3)CC1)C2 [DDD01246808] | <30 | 30.26 |
| COCCN(C)CCN1CC2(CCN(C3CCSC3)CC2)OC1=O (stereo not shown) [DDD01246844] | 176.84 | <30 |
| Cc1cccc(C(=O)N2CCCC(c3nccn3Cc3cscn3)C2)n1 (stereo not shown) [DDD01247041] | 160.00 | <30 |
| Cc1ccccc1OCC(=O)N1CCOC2(CNCCOC2)C1 (stereo not shown) [DDD01247077] | 174.44 | <30 |
| COc1cccc(Cn2c(C)c(C)oc2=O)c1OC [DDD01247327] | <30 | 30.45 |
| CN(C)CC(=O)NC1CC(C)(C)Cc2nc(C(C)(C)C)ncc21 (stereo not shown) [DDD01247509] | <30 | 43.65 |
| c1cc(CN2CCC(c3ccncc3)CC2)cc(Cn2cccn2)c1 [DDD01247553] | 75.89 | <30 |
| CCNC(=O)[C@@H]1C[C@H](N)CN1C(=O)C1(c2ccc(OC)cc2)CCCC1 [DDD01247775] | <30 | 31.68 |
| Cc1ccc(CN(Cc2ccncc2)C2CCN(C)CC2)s1 [DDD01247850] | <30 | 35.49 |
| CSc1nccc(N2CCC(=O)N(CC3CC3)C(C(C)C)C2)n1 (stereo not shown) [DDD01248006] | 91.33 | <30 |
| CCn1c(C2CCCN(C(=O)c3ccc[nH]3)C2)nn(CCN(C)C)c1=O (stereo not shown) [DDD01248239] | 83.64 | <30 |
| CCc1ccc(CN(C)Cc2cnc(S(=O)(=O)CC)n2CCOC)cc1 [DDD01248618] | 143.16 | <30 |
| O=C(O)C1(Oc2ccccc2F)CCN(C/C=C/c2ccco2)CC1 [DDD01248641] | <30 | 35.65 |
| CN(C)C(=O)NCc1cc2n(n1)CCCN(CC1CCCNC1)C2 (stereo not shown) [DDD01248722] | 166.37 | <30 |
| Cc1cccc2[nH]c(C3CCN(C(=O)c4ccc[nH]4)CC3)nc12 [DDD01248889] | 179.77 | <30 |
| Cc1nc2cc(OCc3nc(C(=O)NC(C)(CO)CO)co3)ccc2s1 [DDD01248928] | 109.47 | <30 |
| Cc1cccc(N2CCC(N3CCCC4(CNC(=O)O4)C3)CC2)c1C (stereo not shown) [DDD01248972] | <30 | 36.41 |
| CCCn1cc(C(=O)NC2CCC(n3cnnc3)CC2)c(C)n1 (stereo not shown) [DDD01249122] | 90.61 | <30 |
| COc1cccc2c1OCC(C(=O)N1CCSCC1)C2 (stereo not shown) [DDD01249304] | 51.06 | <30 |
| O=C(c1ccccc1)N1CCCC(Nc2ccc(F)cc2)C1 (stereo not shown) [DDD01249390] | 180.87 | <30 |
| Cc1noc(CN(C)C(=O)c2[nH]nc(N)c2-c2ccccc2)n1 [DDD01249532] | <30 | 61.65 |
| Cc1nn(C)c2nc(N(C)CC3CCN(CC(C)C)C3)sc12 (stereo not shown) [DDD01249587] | <30 | 47.43 |
| COc1cccc(OC2CN(C(=O)c3sccc3C)C2)c1 [DDD01250000] | <30 | 64.75 |

| SMILES | %Inhibition Male @2uM [1] [%] | %Inhibition Female @2uM [2] [%] |
| --- | --- | --- |
| CN1CCC(N(C)C[C@H]2CC[C@@H](Cc3ccc4occc4c3)O2)CC1 [DDD01250070] | <30 | 33.03 |
| CCc1nn(C)c(Cl)c1CN1CCCC2(CC1)CN(C)C(=O)O2 (stereo not shown) [DDD01250081] | <30 | 32.84 |
| CN(C)Cc1nnc(C2CCN(c3ncccn3)CC2)n1C1CC1 [DDD01250187] | 31.65 | <30 |
| CCc1ccccc1C(=O)N1C[C@@H](CN2CCOCC2)[C@@H](CO)C1 [DDD01250732] | 143.16 | <30 |
| O=C(c1ccccn1)N1C[C@H]2CC[C@@H](C1)N(C(=O)CCC1CCCC1)C2 [DDD01250927] | 61.83 | <30 |
| O=C(c1ccccc1)N1C[C@H]2CC[C@@H](C1)N(Cc1cc(F)ccc1Cl)C2 [DDD01251068] | 176.84 | <30 |
| Cc1oc(-c2ccoc2)nc1CN1CCC[C@H]1CO [DDD01251548] | 131.44 | <30 |
| CN(C)c1nccnc1N1CC[C@@]2(O)CCNC[C@H]2C1 [DDD01251755] | <30 | 48.40 |
| COc1ccc(CN2CCC3(CCCNC3)C2)cc1Cn1cccn1 (stereo not shown) [DDD01251771] | 126.32 | <30 |
| CN(C)C(C(=O)N1CC(Oc2ccccc2F)C1)c1ccc(F)cc1 (stereo not shown) [DDD01251854] | <30 | 43.98 |
| Cc1ocnc1C(=O)N1CCC(c2nccn2Cc2ccncc2)CC1 [DDD01252089] | 78.03 | <30 |
| CN(C)c1ccccc1C(=O)N1CCOC2(CNCCOC2)C1 (stereo not shown) [DDD01252114] | 137.91 | <30 |
| COc1cccc2c1OCC(C(=O)N1CCN(C3CCCC3)C(=O)C1)C2 (stereo not shown) [DDD01252180] | 176.84 | <30 |
| COc1ccc(-c2cc(CNc3ncnc4c3CCNCC4)no2)cc1 [DDD01252258] | <30 | 36.22 |
| CN(C)c1nc2c(c(N(C)C)n1)CCN(C(=O)CN1C[C@H]3CC[C@@H]1C3)C2 [DDD01252415] | <30 | 30.39 |
| Cc1c(NCc2cccnc2)cccc1C(=O)N1CCC(N(C)C)C1 (stereo not shown) [DDD01252445] | 39.91 | <30 |
| c1ccn2c(C3CCCN(c4ncnc5c4CCNC5)C3)nnc2c1 (stereo not shown) [DDD01252518] | <30 | 33.03 |
| O=C(c1cccc(S(=O)(=O)NCCc2ccccn2)c1)N1CCOCC1 [DDD01252530] | 176.84 | <30 |
| CN(C)Cc1nnc(C2CCCN(Cc3ccc(Cl)s3)C2)n1C (stereo not shown) [DDD01252876] | 184.62 | <30 |
| Cc1cc(CC(=O)N2CCN(CC(C)C)[C@@H]3CS(=O)(=O)C[C@@H]32)ccc1F [DDD01253102] | 30.33 | <30 |
| Cc1ccc(-c2nc(CNC(C)CCO)[nH]c2-c2ccccn2)cc1 (stereo not shown) [DDD01253542] | 59.22 | 47.40 |
| CN1CC2(CCN(C(=O)c3ccc(=O)n(C)c3)CC2)CC1=O [DDD01253564] | <30 | 30.30 |
| CS(=O)(=O)N1C[C@H]2CC[C@@H](C1)N(C(=O)CCn1cnc3ccccc31)C2 [DDD01253654] | 35.49 | <30 |
